Laboratory results from patent publication US5696276A, “Process for preparing 5,8-dihydroxynaphthoquinone derivatives, novel 5,8-dihydroxynaphthoquinone derivatives and their use as anticancer agent” (Kuhnil Pharmaceutical Co., Ltd., priority 1993, dated 1997).
≈ marks a conversion by molar mass, not a printed value.

Experiments:
S-180 sarcoma cells = assay: Animal experiment using Sarcoma S-180 cells (survival of mouse); assay type: in vivo, male ICR mouse; conditions: ip, S-180 ICR mouse, intraperitoneal, 7 to 8 injections; for responders at 10 µmol/kg / responders at 5 µmol/kg: 1200 h, read-out: Number of mouse survived for 50 days (converted); for responders at 10 µmol/kg / response vs control in vivo at 10 µmol/kg: daily dose 10 μmole (mg/kg/day given per compound); for response vs control in vivo at 10 µmol/kg / response vs control in vivo at 5 µmol/kg: read-out: T/C; for responders at 5 µmol/kg / response vs control in vivo at 5 µmol/kg: daily dose 5 μmole (mg/kg/day given per compound)
Procedure: In this experiment, healthy male ICR mouse weighing 20 to 25 g were used as test animal and were fed with water and feed without any restriction in the chamber controlled at the temperature of 23° to 24° C. As the feed, the antibiotic-free feed for mouse was used.
S-180 cells which were incubated for 7 days within abdominal cavity of ICR mouse were separated together with ascites. To the separated cells was added sterilized cold physiological saline and the mixture was centrifuged with 400×g for 2 minutes to separate the cell precipitate. The separated cell precipitate was suspended again in sterilized cold physiological saline and then centrifuged to remove the supernatant. Only S-180 cells were taken, excluding any red bllod cells incorporated therein, washed three times with the same method as above, and then suspended to obtain the cell suspension in concentration of 10^7 cells/ml by counting the number of cells with a haemacytometer. Each 0.1 ml of this cell suspension was transplanted in an abdominal cavity.
After 24 hours from the transplantation, mouse were divided so that each group contains 8 to 9 mouse. The test sample was dissolved in a predetermined amount of dimethylsulfoxide to prepare the stock solution which was stored at 4° C. 30 μl of the stock solution was taken and then mixed with 1.5 ml of physiological saline. 0.1 ml of this mixture was intraperitoneally injected to the test animal. To the control group, 2% dimethylsulfoxide-physiological saline solution was injected. Meanwhile, doxorubicin which is used as the comparative drug was dissolved in 2% dimethylsulfoxide-physiological saline solution and then injected in an amount of 0.5 mg(titer)/kg. The schedule for injection comprises a total of 7 to 8 injections in the manner that after the transplantation of cancer cells 0.1 ml of the test sample per a day is administered for 2 to 4 days followed by the rest for one day. The survival rate was calculated on the basis of the date on which all of one control group is died (approximately 18 to 20 days). The survival rate (T/C, %) was calculated by the following equation as proposed in NIC's protocol: [formula]

L1210 cells = assay: Cytotoxic activity against L1210 cells; assay type: cell-based; conditions: Mus musculus; L1210 cells, 48 hours, 37° C.; read-out: ED50, cytotoxic activity against L1210
Procedure: To obtain L1210 cells in a logarithmic phase for cytotoxic activity test, in a 250 ml Erlenmeyer flask with a screw cap including Fisher medium warmed to 36° to 37° C. L1210 cells were adjusted to a concentration of 2-3×10^5 cells/ml and then cultured, before 24 hours from the beginning of experiment. Then, the culture solution thus obtained was suspended to prepare a L1210 cell suspension having a concentration of about 0.8-1.0×10^6 cells/ml. Test sample was dissoved in ethanol or dimethylsulfoxide in a certain concentration just before the experiment. 0.1 ml of the sample solution was diluted 10 times with 0.9 ml of a fresh medium. To each screw-capped test tube were added 100, 50, 25 μl, respectively, of the sample dilutions and then added 5 ml of the cell suspension (5×10^4 cells/ml) prepared above to use as the test group. To the test tubes for the control group (2√n: n=number of the samples), only 5 ml of the cell suspension was added. All test tubes were cultured for 48 hours in a CO2 incubator at 37° C. and then the number of cells was counted using a haemacytometer.
(§1) The ED50 value is defined as a concentration (μg/ml) of the sample which inhibits the growth of cancer cells by 50% of the control group and determined according to a method described in NIC's mannual (NIC=National Cancer Institue, U.S.A.). The growth rate Y(%) of cells in the presence of the test sample in each concentration was calculated according to the followign equation: […]
(§2) In the above equation, T means the average cell number per ml in the test group after incubation for 48 hours in the presence of the test samples in each concentration, C means the average cell number per ml in the control group after incubation for 48 hours, and Co means the average cell number per ml in the control group at the beginning of incubation. The Y(%) value at each concentration and log10 value of each concentration were obtained and the regression curve was constructed according to the following equation from those obtained values. In this case, when all the Y(%) value obtained at each concentration is greater than 55% or lower than 45%, the experiment was repeatedly conducted.
(§3) To construct the regression curve Y=A+BX the values A and B were obtained using the following equation. [formula]
(§4) In the above, the value N is the number of selected points which is greater than 2 and lower than, or identical with, the number of cencentration of the test sample, Xi is log(concentration) i, and Yi is the growth ratio at (concentration)i. The value of ED50 was obtained for those obtained slope and intercept.

A549 cancer cells = assay: Cytotoxic activity against A549 cancer cells (sulforhodamin B method); assay type: cell-based; conditions: Homo sapiens; A549 cells, SRB method, 48 hours; read-out: ED50, cytotoxic activity against A549
Procedure: The cytotoxic activity against A549 cancer cells was determined using a method for measuring sulforhodamin B (SRB), which was developed in the year 1989 by NIC for measuring anticancer activity of the drug in vitro. For the experiment, cells under subculturing were separated from the attached surface with trypsin-CDTA solution and then dispensed into a 24-well flat-bottom microplate (Falcon) so that the number of cells per well is 8×10^4 (A549). The microplate was incubated in a CO2 incubator for 24 hours to attach the dispensed cells to bottom. The medium was removed with aspirator. Then, 100 μl of the solution of the test compounds diluted in a log-dose of 6 kinds of concentration was added to each well containing cells, in a multiple of 3. The microplate was incubated for further 48 hours. In addition, the diluted solution of the test compounds above was filtered through a 0.22 μm filter, before addition to the cells, to keep the experiment under sterilized condition. The cells were incubated with the test compounds for 48 hours and then the medium was removed from each well. 100 μl of 10% trichloroacetic acid (TCA) was added to each well and then the plate was allowed to stand at 4° C. for one hour to fix the cells to the bottom of plate. After fixing the cells, the plate was washed 5 to 6 times with water to completely remove any remaining TCA solution and then dried at room temperature until water is no longer present. To the completely dried plate was added the dying solution of 0.4% SRB dissolved in 1% acetic acid in an amount of 250 μl per well to stain the cells for 30 minutes and then the plate was washed again 5 to 6 times with 1% acetic acid solution to remove the remaining SRB which is not bound to the cells. The stained cell plate was dried again at room temperature. Then, the dying solution was carefully dissolved in a certain amount of 10 mM Tris so that the O.D. value in the control group at 520 nm is 0.8-1.0 Å (optical density), and the optical density at 520nm was determined. The ED50 value was obtained from the determined optical density. To calculate the activity of the drug against cancer cells, the number of cells (Tz) at the beginning of the addition of drug, the number of cells (C) after incubation with the medium in the absence of drug for 48 hours and the number of cells (T) after incubation in the presence of drugs at each concentration for 48 hours were determined.
The anticancer activity of the test compounds was determined form the following equations. Specifically, in the […] the equation (T-Tz)/(C-Tz)×100 was used and in the case of Tz<T the equation (T-Tz)/Tz×100 was used. Then the IC50 value wich is the concentration of drug which inhibits the growth of cancer cells by 50% was calcualted from the above calculated values using a data regressive function of LOTUS programme and the cytotoxic activities of the test compounds were compared with each other.

K-562 cells = assay: Cytotoxic activity against K-562 cells; assay type: cell-based; conditions: Homo sapiens; K562 cells, 48 hours, 37° C.; read-out: ED50, cytotoxic activity against K562
Procedure: As in the test for the cytotoxic activity against L1210 cells, the test samples were dissoved in ethanol or dimethylsulfoxide in a certain concentration. 0.1 ml of the sample solution was mixed with 0.9 ml of a fresh medium to prepare the dilutions. To each two test tubes having a screw cap were added 100, 50, 25 μl, respectively, of the sample dilutions by means of a micropipet. To each test tube for the test group and the control group (2√n: n=number of the samples) was added 5 ml of the dilutions of HL-60 cells and K-562 cells which were cultured and activated before 24 hours from the beginning of experiment and then diluted in a concentration of 1×10^5 cells/mi. All test tubes were cultured for 48 hours in a CO2 incubator at 37° C. and then the number of cells was counted using a haemacytometer.
as §1, §2, §3, §4

| Structure (SMILES) | responders at 10 µmol/kg (S-180 sarcoma cells) [%] | response vs control in vivo at 10 µmol/kg (S-180 sarcoma cells) [%] | IC50 (L1210 cells) [µg/mL] | IC50 (A549 cancer cells) [µg/mL] | IC50 (K-562 cells) [µg/mL] | responders at 5 µmol/kg (S-180 sarcoma cells) [%] | response vs control in vivo at 5 µmol/kg (S-180 sarcoma cells) [%] |
| --- | --- | --- | --- | --- | --- | --- | --- |
| CCCCCC(=O)OC(CCC(C)C)C1=CC(=O)c2c(O)ccc(O)c2C1=O (stereo not shown) | 0 | 151 | 0.3 (≈ 0.772 µM) | 0.4 (≈ 1.03 µM) | 0.05 (≈ 0.129 µM) | – | – |
| CC(=O)OC(CCC(C)C)C1=CC(=O)c2c(O)ccc(O)c2C1=O (stereo not shown) [2-(1-acetoxy-4-methylpentyl)-5,8-dihydroxy-1,4-naphthoquinone] | – | – | 0.05 (≈ 0.15 µM) | 1.5 (≈ 4.51 µM) | 0.07 (≈ 0.211 µM) | 14.3 | 188 |
| CCCCCCCCCC(OC(C)=O)C1=CC(=O)c2c(O)ccc(O)c2C1=O (stereo not shown) [2-(1-acetoxydecyl)-5,8-dihydroxy-1,4-naphthoquinone] | 14.3 | 197 | 0.4 (≈ 1.03 µM) | 0.3 (≈ 0.772 µM) | 0.1 (≈ 0.257 µM) | – | – |
| CCCCCC(OC(C)=O)C1=CC(=O)c2c(O)ccc(O)c2C1=O (stereo not shown) [2-(1-acetoxyhexyl)-5,8-dihydroxy-1,4-naphthoquinone] | – | – | 0.08 (≈ 0.241 µM) | 0.7 (≈ 2.11 µM) | 0.01 (≈ 0.0301 µM) | 25 | 150 |
| CCCCCCCCCCCCC(OC(C)=O)C1=CC(=O)c2c(O)ccc(O)c2C1=O (stereo not shown) [2-(1-acetoxytridecyl)-5,8-dihydroxy-1,4-naphthoquinone] | 14.3 | 131 | 0.4 (≈ 0.929 µM) | 15.8 (≈ 36.7 µM) | 4.2 (≈ 9.76 µM) | – | – |
| CCOC(CCC(C)C)C1=CC(=O)c2c(O)ccc(O)c2C1=O (stereo not shown) [2-(1-ethoxy-4-methylpentyl)-5,8-dihydroxy-1,4-naphthoquinone] | 0 | 105 | 0.04 (≈ 0.126 µM) | 1.7 (≈ 5.34 µM) | 0.08 (≈ 0.251 µM) | – | – |
| CCCCCC(=O)OC(CCCCC)C1=CC(=O)c2c(O)ccc(O)c2C1=O (stereo not shown) [2-(1-hexanoyloxyhexyl)-5,8-dihydroxy-1,4-naphthoquinone] | 0 | 151 | 0.1 (≈ 0.257 µM) | 0.3 (≈ 0.772 µM) | 0.2 (≈ 0.515 µM) | – | – |
| CC(C)CCC(O)C1=CC(=O)c2c(O)ccc(O)c2C1=O (stereo not shown) [2-(1-hydroxy-4-methylpentyl)-5,8-dihydroxy-1,4-naphthoquinone, reference compound] | – | – | 0.05 (≈ 0.172 µM) | 0.9 (≈ 3.1 µM) | 0.01 (≈ 0.0344 µM) | 0 | 120 |
| COc1ccc(OC)c2c1C(=O)C=C(C(O)CCC(C)C)C2=O (stereo not shown) [2-(1-hydroxy-4-methylpentyl)-5,8-dimethoxy-1,4-naphthoquinone] | 0 | 120 | 0.02 (≈ 0.0628 µM) | 2.2 (≈ 6.91 µM) | 0.9 (≈ 2.83 µM) | – | – |
| CCCCCCCCCCCCC(O)C1=CC(=O)c2c(O)ccc(O)c2C1=O (stereo not shown) [2-(1-hydroxytridecyl)-5,8-dihydroxy-1,4-naphthoquinone] | 0 | 113 | 0.3 (≈ 0.772 µM) | 4.4 (≈ 11.3 µM) | 0.4 (≈ 1.03 µM) | – | – |
| COC(CCC(C)C)C1=CC(=O)c2c(O)ccc(O)c2C1=O (stereo not shown) [2-(1-methoxy-4-methylpentyl)-5,8-dihydroxy-1,4-naphthoquinone] | 0 | 126 | 0.05 (≈ 0.164 µM) | 1.5 (≈ 4.93 µM) | 0.07 (≈ 0.23 µM) | – | – |
| CCCCCOC(CCC(C)C)C1=CC(=O)c2c(O)ccc(O)c2C1=O (stereo not shown) [2-(1-pentyloxy-4-methylpentyl)-5,8-dihydroxy-1,4-naphthoquinone] | – | – | 0.3 (≈ 0.832 µM) | 1.3 (≈ 3.61 µM) | 0.2 (≈ 0.555 µM) | – | – |
| CCCCCOC(CCC(C)C)C1=CC(=O)c2c(OC)ccc(OC)c2C1=O (stereo not shown) [2-(1-pentyloxy-4-methylpentyl)-5,8-dimethoxy-1,4-naphthoquinone] | – | – | 2.6 (≈ 6.69 µM) | 7.8 (≈ 20.1 µM) | 3 (≈ 7.72 µM) | – | – |
| COc1ccc(OC)c2c1C(=O)C=C(C(CCC(C)C)OCCC(C)C)C2=O (stereo not shown) [2-[1-(3-methylbutoxy)-4-methylpentyl]-5,8-dimethoxy-1,4-naphthoquinone] | – | – | 2.5 (≈ 6.43 µM) | 3.3 (≈ 8.49 µM) | 2.3 (≈ 5.92 µM) | – | – |
